Measured values published in PubChem BioAssay AID330 (DTP/NCI, 2004).
“And” between values parts separate entries of the source, which are not always exact repeats. Equal entries are not always repeated. Inconclusive results and toxic doses are left out. How the source made its calls: active means survival T/C of 150% or more; inactive means T/C below 125% in these data.

Tested on: P388 leukemia ip, CD2F1 mice, survival T/C
Experiment: NCI In Vivo Anticancer Drug Screen. Data for tumor model P388 Leukemia (intraperitoneal) in CD2F1 (CDF1) mice
Details: endpoint: median survival time, higher = longer survival
How it was run: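 Mice carrying the transplanted tumor received test compound or vehicle. Survival was recorded in each group, and the value is the treated-group measurement divided by that of the vehicle-treated control group.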

[1] = dose: 100.0 mg/kg/injection, schedule: Q01DX009 (ip), vehicle: saline with Tween-80
[2] = dose: 200.0 mg/kg/injection, schedule: Q01DX009 (ip), vehicle: saline with Tween-80
[3] = dose: 50.0 mg/kg/injection, schedule: Q01DX009 (ip), vehicle: saline
[4] = dose: 100.0 mg/kg/injection, schedule: Q01DX009 (ip), vehicle: saline
[5] = dose: 200.0 mg/kg/injection, schedule: Q01DX009 (ip), vehicle: saline
[6] = dose: 100.0 mg/kg/injection, schedule: Q01DX001 (ip), vehicle: Klucel (hydroxypropylcellulose) (HPC)
[7] = dose: 200.0 mg/kg/injection, schedule: Q01DX001 (ip), vehicle: Klucel (hydroxypropylcellulose) (HPC)
[8] = dose: 50.0 mg/kg/injection, schedule: Q01DX009 (ip), vehicle: Klucel (hydroxypropylcellulose) (HPC)
[9] = dose: 100.0 mg/kg/injection, schedule: Q01DX009 (ip), vehicle: Klucel (hydroxypropylcellulose) (HPC)
[10] = dose: 200.0 mg/kg/injection, schedule: Q01DX009 (ip), vehicle: Klucel (hydroxypropylcellulose) (HPC)
[11] = dose: 50.0 mg/kg/injection, schedule: Q01DX009 (ip), vehicle: saline with Tween-80
[12] = dose: 60.0 mg/kg/injection, schedule: Q01DX005 (ip), vehicle: saline
[13] = dose: 120.0 mg/kg/injection, schedule: Q01DX005 (ip), vehicle: saline
[14] = dose: 240.0 mg/kg/injection, schedule: Q01DX005 (ip), vehicle: saline
[15] = dose: 60.0 mg/kg/injection, schedule: Q01DX005 (ip), vehicle: Klucel (hydroxypropylcellulose) (HPC)
[16] = dose: 120.0 mg/kg/injection, schedule: Q01DX005 (ip), vehicle: Klucel (hydroxypropylcellulose) (HPC)
[17] = dose: 240.0 mg/kg/injection, schedule: Q01DX005 (ip), vehicle: Klucel (hydroxypropylcellulose) (HPC)
[18] = dose: 12.5 mg/kg/injection, schedule: Q01DX009 (ip), vehicle: saline with Tween-80
[19] = dose: 25.0 mg/kg/injection, schedule: Q01DX009 (ip), vehicle: saline with Tween-80
[20] = dose: 50.0 mg/kg/injection, schedule: Q01DX005 (ip), vehicle: saline with Tween-80
[21] = dose: 100.0 mg/kg/injection, schedule: Q01DX005 (ip), vehicle: saline with Tween-80
[22] = dose: 200.0 mg/kg/injection, schedule: Q01DX005 (ip), vehicle: saline with Tween-80
[23] = dose: 60.0 mg/kg/injection, schedule: Q01DX005 (ip), vehicle: saline with Tween-80
[24] = dose: 120.0 mg/kg/injection, schedule: Q01DX005 (ip), vehicle: saline with Tween-80

Measured: T/C

CC(=O)Nc1cc(F)c2c(c1F)Cc1cc(F)ccc1-2
inactive: [1] 100 % of control | dose: 100.0 mg/kg/injection, schedule: Q04DX003 (ip), vehicle: saline with Tween-80 100 % of control | [2] 90 % of control | dose: 200.0 mg/kg/injection, schedule: Q04DX003 (ip), vehicle: saline with Tween-80 100 % of control | dose: 400.0 mg/kg/injection, schedule: Q04DX003 (ip), vehicle: saline with Tween-80 104 % of control

O=C1C2=C(SCCS2)C(=O)N1c1cccc2ccccc12
inactive: [3] 97 % of control | [4] 97 % of control | [5] 100 % of control

COc1ccccc1-n1c(=O)c(N=Nc2ccccc2Cl)c(O)n(-c2ccccc2Cl)c1=S
inactive: [6] 101 % of control | [7] 100 % of control | dose: 400.0 mg/kg/injection, schedule: Q01DX001 (ip), vehicle: Klucel (hydroxypropylcellulose) (HPC) 101 % of control

NC(N)=NCC(NS(=O)(=O)c1ccccc1)C(=O)O (stereo not drawn)
inactive: [8] 111 % of control | [9] 111 % of control | [10] 104 % of control

O=C(/C=C/c1ccc(OCc2ccccc2)cc1)c1ccccc1Cl
inactive: [11] 110 % of control and 95 % of control | [1] 110 % of control and 91 % of control | [2] 100 % of control | dose: 400.0 mg/kg/injection, schedule: Q01DX009 (ip), vehicle: saline with Tween-80 100 % of control

COC(=O)CNC(=O)C(Cc1c[nH]c2ccccc12)NC(=O)OC(C)(C)C (stereo not drawn)
inactive: dose: 12.5 mg/kg/injection, schedule: Q01DX009 (ip), vehicle: other 96 % of control | dose: 25.0 mg/kg/injection, schedule: Q01DX009 (ip), vehicle: other 89 % of control | dose: 50.0 mg/kg/injection, schedule: Q01DX009 (ip), vehicle: other 89 % of control | dose: 100.0 mg/kg/injection, schedule: Q01DX009 (ip), vehicle: other 90 % of control | dose: 200.0 mg/kg/injection, schedule: Q01DX009 (ip), vehicle: other 97 % of control

Nc1n[nH][nH]c1=O
inactive: [12] 100 % of control | [13] 116 % of control | [14] 100 % of control

Cc1ccc(S(=O)(=O)OC(C#N)c2ccccc2)cc1 (stereo not drawn)
inactive: [8] 111 % of control | [9] 102 % of control | [10] 100 % of control | dose: 400.0 mg/kg/injection, schedule: Q01DX009 (ip), vehicle: Klucel (hydroxypropylcellulose) (HPC) 106 % of control

COC(=O)C1Cc2cocc2CC(C(=O)OC)N1C(=O)OC(C)(C)C (stereo not drawn)
inactive: dose: 8.75 mg/kg/injection, schedule: Q01DX005 (ip), vehicle: Klucel (hydroxypropylcellulose) (HPC) 99 % of control | dose: 17.5 mg/kg/injection, schedule: Q01DX005 (ip), vehicle: Klucel (hydroxypropylcellulose) (HPC) 101 % of control | dose: 35.0 mg/kg/injection, schedule: Q01DX005 (ip), vehicle: Klucel (hydroxypropylcellulose) (HPC) 99 % of control

CC(=O)OC1CC(=O)OC(C)(C)C2CC(=O)C3(C)C(CCC4(C)C(c5ccoc5)OC(=O)C5OC543)C12C (stereo not drawn)
inactive: [11] 99 % of control | [1] 97 % of control | [2] 97 % of control

COC1CCC(O)C(C(=O)CN(C)C)C1 (stereo not drawn)
inactive: dose: 50.0 mg/kg/injection, schedule: Q01DX005 (ip), vehicle: saline 101 % of control | dose: 100.0 mg/kg/injection, schedule: Q01DX005 (ip), vehicle: saline 99 % of control | dose: 200.0 mg/kg/injection, schedule: Q01DX005 (ip), vehicle: saline 99 % of control

N=c1c2ncn(C3OC(COP(=O)(O)O)C(O)C3O)c2ncn1O (stereo not drawn)
inactive: [3] 97 % of control | [4] 97 % of control | [5] 95 % of control | dose: 400.0 mg/kg/injection, schedule: Q01DX009 (ip), vehicle: saline 97 % of control

Cc1cc(=O)oc2c(-c3ccccc3)nnc(Cl)c12
inactive: [15] 98 % of control | [16] 96 % of control | [17] 95 % of control

CC1(C)CN(C(C)(C)C)CN2C1OCC2(C)C (stereo not drawn)
inactive: [11] 101 % of control | [1] 112 % of control | [2] 112 % of control

CCCCNCCC(=O)c1ccc(Cl)cc1
inactive: dose: 6.25 mg/kg/injection, schedule: Q01DX009 (ip), vehicle: saline with Tween-80 100 % of control | [18] 100 % of control | [19] 105 % of control

c1ccc2c(SCCCCCSc3c4ccccc4nc4ccccc34)c3ccccc3nc2c1
inactive: [15] 97 % of control | [16] 89 % of control | [17] 88 % of control

CC1(C)CC(NC(=O)C(C)(C)Oc2ccc(Cl)cc2)CC(C)(C)N1
inactive: [20] 107 % of control | [21] 100 % of control | [22] 98 % of control

O=C1OC(=O)[C@H]2[C@@H]1[C@H]1C=C[C@@H]2OC1=O
inactive: [18] 123 % of control | dose: 12.5 mg/kg/injection, schedule: Q01DX009 (ip), vehicle: saline 103 % of control | [19] 108 % of control | dose: 25.0 mg/kg/injection, schedule: Q01DX009 (ip), vehicle: saline 100 % of control | [11] 105 % of control | [3] 99 % of control and 92 % of control | [1] 101 % of control | [4] 100 % of control | [5] 98 % of control

CCCC(=O)c1cc(-c2cc(C(=O)CCC)nc(N)n2)nc(N)n1
inactive: [23] 99 % of control | [24] 107 % of control

NC(=O)CCN1CCCN(CCC(N)=O)CCN(CCC(N)=O)CCCN(CCC(N)=O)CC1
inactive: [23] 102 % of control | [24] 110 % of control | dose: 240.0 mg/kg/injection, schedule: Q01DX005 (ip), vehicle: saline with Tween-80 94 % of control

CN1C(=O)c2ccc3c4ccc5c(=O)n6c7ccccc7nc6c6ccc(c7ccc(c2c37)C1=O)c4c56
inactive: dose: 50.0 mg/kg/injection, schedule: Q01DX005 (ip), vehicle: Klucel (hydroxypropylcellulose) (HPC) 102 % of control | dose: 100.0 mg/kg/injection, schedule: Q01DX005 (ip), vehicle: Klucel (hydroxypropylcellulose) (HPC) 105 % of control | dose: 200.0 mg/kg/injection, schedule: Q01DX005 (ip), vehicle: Klucel (hydroxypropylcellulose) (HPC) 97 % of control

CN1CCN(C2=C(Cl)C(=O)c3ccccc3C2=O)CC1
inactive: dose: 1.25 mg/kg/injection, schedule: Q01DX009 (ip), vehicle: saline 100 % of control | dose: 2.5 mg/kg/injection, schedule: Q01DX009 (ip), vehicle: saline 103 % of control | dose: 5.0 mg/kg/injection, schedule: Q01DX009 (ip), vehicle: saline 109 % of control

CC1=CC(O)CC(C)(C)C1 (stereo not drawn)
inactive: [3] 106 % of control | [4] 100 % of control | [5] 99 % of control

Cc1nc(N)[nH]c(=O)c1CCCN=Cc1ccccc1
inactive: [15] 108 % of control | [16] 105 % of control | [17] 96 % of control

O/N=C/c1ccccn1
inactive: [12] 92 % of control | [13] 101 % of control | [14] 100 % of control

CC(=O)OCC1OC(Sc2nnc(-c3ccccc3)c(-c3ccccc3)n2)C(OC(C)=O)C(OC(C)=O)C1OC(C)=O (stereo not drawn)
inactive: [11] 107 % of control | [1] 98 % of control | [2] 100 % of control

CC1(C)CCC/C(=C\c2ccccc2)C1(O)c1ccccn1 (stereo not drawn)
inactive: [11] 97 % of control | [1] 98 % of control | [2] 100 % of control

C=C(C)CN(CCC#N)CC(=C)C
inactive: [20] 102 % of control | [21] 105 % of control | [22] 101 % of control

NC1=C(O)C(=O)C(c2c3ccccc3cc3ccccc23)O1 (stereo not drawn)
inactive: [15] 94 % of control | [16] 108 % of control | [17] 86 % of control

S=C(Nc1ccc(Cl)cc1)SSC(Cl)(Cl)Cl
inactive: [18] 91 % of control | [19] 100 % of control | dose: 50.0 mg/kg/injection, schedule: Q01DX009 (ip), vehicle: saline + alcohol 112 % of control | [11] 115 % of control

[O-]c1nc(C(F)(F)F)nc(C(F)(F)F)c1-[n+]1ccccc1
inactive: [15] 108 % of control | [16] 104 % of control | [17] 96 % of control

N#Cc1c(Cl)nc2sccn12
inactive: [6] 95 % of control | [7] 103 % of control
